Results from ChEMBL document CHEMBL2010796, “Systematic structure modifications of imidazo[1,2-a]pyrimidine to reduce metabolism mediated by aldehyde oxidase (AO)” (J Med Chem, 2011).
Active and inactive are the calls of the source. No cut-off for these calls is given here.

Assays:
[1] = molecular target: T1, Androgen receptor (Homo sapiens) (UniProt P10275); test: Antagonist activity at human androgen receptor expressed in LNAR cells assessed as inhibition of […]-induced luciferase activity by reporter gene assay; format: functional, cell-based
T1 sequence (whole entry): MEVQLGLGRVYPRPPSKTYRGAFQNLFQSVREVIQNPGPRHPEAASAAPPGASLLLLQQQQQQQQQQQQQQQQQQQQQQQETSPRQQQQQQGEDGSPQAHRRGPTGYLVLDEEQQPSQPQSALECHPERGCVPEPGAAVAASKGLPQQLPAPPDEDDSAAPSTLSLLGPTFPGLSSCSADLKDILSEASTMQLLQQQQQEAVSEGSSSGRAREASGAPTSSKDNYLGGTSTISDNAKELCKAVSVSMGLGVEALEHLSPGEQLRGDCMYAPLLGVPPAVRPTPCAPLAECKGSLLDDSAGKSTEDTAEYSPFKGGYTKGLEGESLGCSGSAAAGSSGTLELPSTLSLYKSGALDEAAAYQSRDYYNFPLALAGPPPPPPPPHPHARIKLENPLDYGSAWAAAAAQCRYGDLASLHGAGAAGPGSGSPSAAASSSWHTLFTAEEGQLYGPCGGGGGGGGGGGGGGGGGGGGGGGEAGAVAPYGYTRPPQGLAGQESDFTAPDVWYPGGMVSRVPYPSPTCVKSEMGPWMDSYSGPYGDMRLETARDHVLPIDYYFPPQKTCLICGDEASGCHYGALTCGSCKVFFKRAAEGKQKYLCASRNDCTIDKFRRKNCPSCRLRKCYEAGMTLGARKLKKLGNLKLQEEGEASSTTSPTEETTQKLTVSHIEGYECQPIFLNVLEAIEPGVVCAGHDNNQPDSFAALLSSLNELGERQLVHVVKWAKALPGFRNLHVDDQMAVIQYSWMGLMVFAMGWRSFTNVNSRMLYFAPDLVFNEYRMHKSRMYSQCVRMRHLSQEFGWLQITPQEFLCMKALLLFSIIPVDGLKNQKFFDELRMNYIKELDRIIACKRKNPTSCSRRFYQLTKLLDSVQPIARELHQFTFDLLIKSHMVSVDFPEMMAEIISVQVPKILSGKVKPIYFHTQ

[2] = Oral bioavailability in rat; format: ADME, organism-based; conditions: in vivo
[3] = Half life in rat; format: ADME, organism-based; conditions: in vivo
[4] = Plasma clearance in rat; format: ADME, organism-based
[5] = Drug metabolism in human liver microsomes assessed as CYP450-mediated oxidation; format: ADME, Microsome
[6] = Kinetic solubility in water; format: physicochemical; conditions: read-out: Kinetic_solubility

## CC1(C)[C@H](NC(=O)c2cnc3ncccn23)C(C)(C)[C@H]1Oc1ccc(C#N)c(Cl)c1
[1]
  inhibition: Active

## COc1nc(O[C@H]2C(C)(C)[C@H](NC(=O)c3cnc4ncccn34)C2(C)C)ccc1C#N
[1]
  inhibition: Active

## Cc1nc(O[C@H]2C(C)(C)[C@H](NC(=O)c3cnc4ncccn34)C2(C)C)ccc1C#N
[2]
  bioavailability: 31%
[3]
  half-life: 216 min
[4]
  clearance: 11.6 mL/min/kg

## Cc1nc(O[C@H]2C(C)(C)[C@H](NC(=O)c3cnc4ccccn34)C2(C)C)ccc1C#N
[5]
  Drug metabolism: Active
[6]
  solubility kinetic: < 0.4 µM

## CC1(C)[C@H](NC(=O)c2cnc3ncccn23)C(C)(C)[C@H]1Oc1ccc(C#N)c(C#N)c1
[1]
  inhibition: Active
